Assay [1] concerns MCF7 human breast cancer cells. Put plainly: MTT cell viability assay, MCF7 breast cancer cells. The class given is cell-based. To be noted: for IC50: 72 h exposure, MTT assay, read-out: IC50 (Mean ± SEM; μM) MCF7 (Cancer); for Selectivity Index: IC50 MCF 10A divided by IC50 MCF7, 72 h, MTT. The protocol: (§1) To evaluate the cytotoxicity of our compounds against cancer cells, they were evaluated in vitro against MCF7 human breast cancer cells. To examine the selectivity of our compounds, they were also studied against MCF 10A human normal cells. Both cell lines were exposed to different concentrations of our compounds for 72 h before measuring cell viability with the 3-(4,5-dimethylthiazol-2-yl)-2,5-diphenyltetrazolium bromide (MTT) assay (for conditions of the MTT assay, see the Experimental Part, Section 3). Docetaxel, an anticancer drug used in clinics, was tested under the same experimental conditions. Data were obtained from at least two independent experiments and were expressed as means ± standard error of means (SEM). The half-maximal inhibitory concentration (IC50) value of each compound was calculated, and the results are collected in Table 2. To evaluate the selective activity of our compounds, the selectivity index (SI) was also calculated. The curves of cell viability of MCF7 cancer cells and MCF 10A normal cells after the treatment with our compounds are shown (Figure 5, Figure 6, Figure 7, Figure 8 and Figure 9 and Figures S1–S4).
(§2) Exponentially growing cells were seeded into 96-well plates, and drugs were added 24 h later. Each compound was dissolved with DMSO (Panreac Applichem) to prepare a stock solution (100 mM). The working solutions of specific concentrations were prepared via the dilution of the stock solutions in the culture medium and were immediately used to treat the cells. The remaining stock solutions were aliquoted and frozen at −40 °C. We used different aliquots in each independent experiment to avoid the freeze–thaw cycles. Cells were exposed to the drugs for 72 h. After these 72 h, cell viability was determined with the MTT assay or the resazurin assay. These assays are colorimetric techniques that are widely used to determine cell viability.
(§3) The MTT assay is based on the capability of viable cells to transform the MTT salt into a purple formazan dye. After an incubation period of the cells with the MTT and a solubilization step, the quantity of the colored product is measured with a plate reading spectrophotometer. […] The quantity of formazan produced is presumably proportional to the number of viable cells. After seeding for 24 h, cells were treated with the tested drugs for 72 h. Then, medium was removed, and 125 μL of MTT (1 mg/mL in medium) was added to each well for 3–4 h. Subsequently, 80 μL of 20% sodium dodecyl sulfate (Panreac Applichem) in 20 mM hydrochloric acid (Panreac Applichem) was added to dissolve the insoluble purple formazan product, plates were incubated for 10 h at 37 °C, and optical densities were measured at 540 nm on a multiwell plate spectrophotometer reader.
(§4) In both assays, cell viability was expressed as percentage in relation to controls. All data were averaged from at least two independent experiments and were expressed as mean ± standard error of the mean (SEM). Selectivity indices (SI) were calculated by dividing the IC50 values in the nonmalignant cells by those in the cancer cells.
For orientation: Tetrazolium dyes change colour on reduction, which living cells bring about.

For assay [2], the system named is MCF 10A human normal breast cells. Put plainly: MTT cell viability assay, MCF 10A normal breast cells. In kind it is cell-based. Particulars: 72 h exposure, read-out: IC50 (Mean ± SEM; μM) MCF 10A (Normal). How it is done:
as §1, §2, §3, §4

In assay [3] the test system is A549 lung cancer cells. Put plainly: MTT cell viability assay, A549 lung cancer cells. The class given is cell-based, human. To be noted: for IC50: 72 h exposure, MTT assay, read-out: IC50 (Mean ± SEM; μM) A549 (Cancer); for Selectivity Index: IC50 MRC-5 divided by IC50 A549, 72 h, MTT. How it is done:
(§5) Benzofurane scaffold, piperazine ring, and urea function are relevant privileged structures present not only in anticancer drugs against breast cancer but also against other types of cancer, such as lung cancer, hepatocarcinoma, and gastric cancer. […] MRC-5 normal lung cells and A549 lung cancer cells were exposed to compounds 31, 32, 35, 37, and cisplatin (a common drug used to treat lung cancer) for 72 h, and cell viability was measured using the MTT assay (Figure 10 and Table 3). Compounds 35 and 37 also had high selectivity for A549 cancer cells.
as §2, §3, §4

Assay [4] concerns MRC-5 normal lung cells. Put plainly: MTT cell viability assay, MRC-5 normal lung cells. In kind it is cell-based, human. Particulars: read-out: IC50 (Mean ± SEM; μM) MRC-5 (Normal). How it is done:
as §5, §2, §3, §4

The test system of assay [5] is HaCaT cells. In words: Resazurin cell viability assay, HaCaT nonmalignant cells. In kind it is cell-based. To be noted: Homo sapiens; for IC50: 72 h; for CC50: 144 h.
Source text: (§6) One key limitation of most anticancer drugs is that they not only target cancer cells but also affect nonmalignant cells with high division rates. This can induce numerous adverse effects, such as severe nausea and vomiting, hair loss, diarrhea, mouth sores, anemia, erythematous eruptions, etc. For example, skin cells, which are constantly renewing themselves, are often damaged by antimetabolites or alkylating agents. This can lead to painful erythematous eruptions. […] These cells are derived from normal adult tissue and have a division rate similar to that of cancer cells. A549 cells and HaCaT cells were exposed to various concentrations of 31, 32, 35, 37, or gemcitabine (a common antimetabolite used to treat cancer) for 72 h. Cell viability was determined with the resazurin assay. Subsequently, the cells were allowed to grow in a drug-free medium for another 72 h. This was performed to test their survival and proliferation ability after the removal of the compounds. Cell viability was again measured with the resazurin assay. […] It should be mentioned that cells exposed to high concentrations of compounds above 100 μM were unable to recover after treatment.
as §2
(§7) The resazurin assay measures the ability of viable cells to transform the blue compound resazurin into the pink compound resorufin. There is a direct correlation between the reduction in resazurin and the number of viable cells. After seeding for 24 h, cells were exposed to several concentrations of compounds. After a 72 h treatment period, the cells were washed once with a phosphate-buffered saline (PBS, biowest), and 150 μL of resazurin (20 μg/mL in the medium) was added to each well. The plates were then incubated for 4–5 h at 37 °C, 5% CO2, and optical densities were measured at 540 nm and 620 nm using a multiwell plate spectrophotometer reader (Imark Bio Rad Laboratories Inc., Hercules, CA, USA). Subsequently, cells were washed once with PBS and allowed to grow for an additional 72 h in drug-free medium to allow them to recuperate from possible damage induced by the tested compounds. After the treatment period, cell viability was measured following the same protocol described above.
as §4
On the technique in general: Alamar Blue is a resazurin reagent that responds to reducing activity.

For assay [6], the system named is A549 cells. Put plainly: Resazurin cell viability assay, A549 cancer cells. In kind it is cell-based, human. To be noted: for IC50: Homo sapiens.
Source text: as §6, §2, §7, §4

The mark [7] stands for this setting: Homo sapiens, MRC5, 72 h exposure.
Where [8] appears, read: 72 h Treatment, resazurin assay, read-out: IC50 (Mean ± SEM; μM) HaCaT (Nonmalignant).
The mark [9] stands for this setting: 72 h Treatment + 72 h Recovery Period, resazurin assay, read-out: IC50 (Mean ± SEM; μM) HaCaT (Nonmalignant).
The mark [10] stands for this setting: A549, 72 h, 72 h Treatment, resazurin assay, read-out: IC50 (Mean ± SEM; μM) A549 (Cancer).
Setting [11] is: A549, 144 h, 72 h Treatment + 72 h Recovery Period, resazurin assay, read-out: IC50 (Mean ± SEM; μM) A549 (Cancer).
Setting [12] is: IC50 HaCaT divided by IC50 A549, 72 h Treatment, resazurin.
Setting [13] is: IC50 HaCaT divided by IC50 A549, 72 h Treatment + 72 h Recovery Period, resazurin.

The record followed here is publication PMC10706865, “Repurposing Study of 4-Acyl-1-phenylaminocarbonyl-2-substituted-piperazine Derivatives as Potential Anticancer Agents—In Vitro Evaluation against Breast Cancer Cells” (International Journal of Molecular Sciences, 2023).

“And” between values parts separate entries of the source, which are not always exact repeats. Identical values can stand only once. Like-named read-outs stand apart in the source and are kept apart here. Some results are limits rather than exact numbers.

For the compound `N#Cc1ccc(NC(=O)N2CCN(C(=O)c3cc4ccccc4o3)CC2c2ccccc2)cc1` (stereo not drawn) [Compound 37], the IC50 in assay [1] (Homo sapiens, MCF7, 72 h) stood at 57.1 ± 34.7 µM; in assay [2], 484 ± 233 µM; in assay [3] (Homo sapiens, A549), 18.7 ± 2.7 µM; in assay [4] (setting [7]), 236 ± 5.4 µM; in assay [5] (setting [8]), 24.8 ± 1.8 µM; in assay [6] (setting [10]), 22.5 ± 2.7 µM. Besides, the IC50 in assay [6] (setting [11]) is 41.6 ± 8.9 µM. The “Selectivity Index” value is greater than 10 in assay [1], 12.8 ± 1.6 in assay [3] and 1.1 ± 0.1 in assay [6] (setting [12]). Moreover, in assay [5] (setting [9]), the CC50 turned out to be 64.6 ± 6.8 µM.
For `CC(C)(C)OC(=O)N1CCN(C(=O)Nc2ccc(Cl)c(C(F)(F)F)c2)C(c2ccccc2)C1` (stereo not drawn) [Compound 32], the “Selectivity Index” value came to 12.6 ± 2.6 in assay [1], 1.0 ± 0.1 in assay [3], 1.1 ± 0.1 in assay [6] (setting [13]) and 1.1 ± 0.1 in assay [6] (setting [12]). Also, the IC50 in assay [2] was 34.1 ± 2.2 µM; in assay [3] (Homo sapiens, A549), 5.2 ± 0.4 µM; in assay [4] (setting [7]), 4.3 ± 0.2 µM; in assay [5] (setting [8]), 6.7 ± 0.8 µM; in assay [6] (setting [10]) it was 6.2 ± 0.6 µM; in assay [6] (setting [11]), 13.6 ± 0.1 µM. In assay [5] (setting [9]), the CC50 was found to be 14.9 ± 1.3 µM.
Consider `O=C(c1cc2ccccc2o1)N1CCN(C(=O)Nc2ccc([N+](=O)[O-])cc2)C(c2ccccc2)C1` (stereo not drawn) [Compound 35], for which the half-maximal inhibitory concentration (IC50) was 23 ± 3.8 µM in assay [1] (Homo sapiens, MCF7, 72 h); 244 ± 24.9 µM in assay [2]; 25.6 ± 2.9 µM in assay [3] (Homo sapiens, A549); 165 ± 4.1 µM in assay [4] (setting [7]); 41.6 ± 8.1 µM in assay [5] (setting [8]); 28.4 ± 7.3 µM in assay [6] (setting [10]). Besides, the IC50 in assay [6] (setting [11]) was 69.3 ± 20.2 µM. Also, the “Selectivity Index” value came to 11.1 ± 2.9 in assay [1], 6.5 ± 2.1 in assay [3] and 1.6 ± 0.2 in assay [6] (setting [12]). The CC50 in assay [5] (setting [9]) amounted to 97.5 ± 16.2 µM.
For `CC(C)(C)OC(=O)N1CCN(C(=O)Nc2cc(C(F)(F)F)ccc2Cl)C(c2ccccc2)C1` (stereo not drawn) [Compound 31], the half-inhibitory concentration (IC50) in assay [1] was 18.6 ± 4.2 µM; in assay [1] (Homo sapiens, MCF7, 72 h), less than 20 µM; in assay [2] it was 298 ± 56.4 µM; in assay [3] (Homo sapiens, A549), 4.8 ± 0.8 µM; in assay [4] (setting [7]), 14.2 ± 0.5 µM; in assay [5] (setting [8]), 14.5 ± 3.2 µM. Also, the values for the 50% inhibitory concentration (IC50) in assay [6] (setting [10]) and in assay [6] (setting [11]) were 17 ± 1.6 µM and 17.8 ± 2 µM, respectively. Moreover, the “Selectivity Index” value in assay [1] is > 10 and 16.6 ± 1.9; in assay [3] it was 2.1 ± 0.3; in assay [6] (setting [12]) it was 0.8 ± 0.2. Besides, the CC50 in assay [5] (setting [9]) worked out at 30.9 ± 7.5 µM.
As for `N.N.[Cl][Pt][Cl]` [Cisplatin, reference compound], in assay [3], the half-maximal inhibitory concentration (IC50) came to 8.2 ± 2.2 µM and the “Selectivity Index” value was determined as 6.3 ± 1.8. Also, the concentration for half-maximal inhibition (IC50) in assay [4] (72 h exposure) stood at 31.8 ± 5.6 µM.
For the compound `Nc1ccn([C@@H]2O[C@H](CO)[C@@H](O)C2(F)F)c(=O)n1` [Gemcitabine, reference compound], the IC50 in assay [5] (gemcitabine line in nM, 72 h Treatment + 72 h Recovery Period, resazurin, read-out: IC50 (Mean ± SEM) HaCaT (Nonmalignant)) was 0.0088 ± 0.0065 µM; in assay [5] (gemcitabine line in nM, 72 h Treatment, resazurin, read-out: IC50 (Mean ± SEM) HaCaT (Nonmalignant)), 0.0131 ± 0.0062 µM; in assay [6] (A549, 72 h, gemcitabine line in nM, 72 h Treatment + 72 h Recovery Period, resazurin, read-out: IC50 (Mean ± SEM) A549 (Cancer)), 0.0093 ± 0.007 µM; in assay [6] (A549, 72 h, gemcitabine line in nM, 72 h Treatment, resazurin, read-out: IC50 (Mean ± SEM) A549 (Cancer)) it was 0.0035 ± 0.0008 µM. In addition, the results for the “Selectivity Index” value in assay [6] (setting [13]) and in assay [6] (setting [12]) were 1.0 ± 0.1 and 3.3 ± 1.4, respectively.

A word on the IC50: it is the midpoint of a concentration-inhibition curve.
